The source of these data is PMC11604427 (Frontiers in Pharmacology, 2024).

In one series the test system is HepG2. The series can be described thus: MTT assay. The following applies: Homo sapiens, HepG2, 48 h, read-out: IC50 (μM) ± SD HepG2. The class given is cell-based. How it is done: (§1) Cells at a density of 4×10^3 cells/well were inoculated into 96-well plates for overnight culture at 37°C. […] Then, 100 μL of a 0.5 mg/mL MTT solution was pipetted into each well, and the incubation was prolonged for 4 h, resulting in the formation of a purple precipitate. Afterward, 200 μL of DMSO was added to each well, and the plate was vortexed for 10 min. The absorbance at 570 nm was determined with a Synergy 4 microplate reader (BioTek, United States). Each experiment was performed three times under the same conditions.
(Formazan colour is commonly taken as a measure of viable cells.)

The next series deals with Hep3B. The series can be described thus: MTT assay. The class given is cell-based. The following applies: Homo sapiens, 48 h, read-out: IC50 (μM) ± SD Hep3B. Here is the method: as §1
For a further series, the system named is HepG2/MDR. The series can be described thus: MTT assay. The series is classed as cell-based. The following applies: Homo sapiens, multidrug-resistant HepG2/MDR, 48 h, read-out: IC50 (μM) ± SD HepG2/MDR. Here is the method: as §1
A further series deals with SNU449. The series can be described thus: MTT assay. Particulars: Homo sapiens, SNU-449, SNU449, 48 h, read-out: IC50 (μM) ± SD SNU449. The series is classed as cell-based. How it is done:
as §1

The next series concerns Huh7. Nature of the series: MTT assay. The series is classed as cell-based. The following applies: Homo sapiens, Huh-7, Huh7, 48 h, read-out: IC50 (μM) ± SD Huh7. How it is done:
as §1

The subject of series [1] is normal human liver cell line L02. The series can be described thus: MTT assay. The following applies: normal liver cell line L02, 48 h. The series is classed as cell-based. How it is done:
as §1

The test system of a further series is HepG2 cells. The series can be described thus: Western blot of apoptosis markers. The series is classed as cell-based, human. How it is done:
To evaluate the protein levels of apoptosis-associated markers, we performed Western blot analysis on cell extracts as previously reported ([Hao et al., 2018]). Briefly, equal amounts of protein were subjected to SDS-PAGE and then transferred onto a polyvinylidene fluoride (PVDF) membrane. The membrane was incubated in a blocking solution consisting of 5% non-fat dry milk in Tris-buffered saline with Tween-20 (TBS-T) for 3 h at room temperature. Subsequently, the membrane was probed with primary antibodies specific to cleaved PARP and cleaved caspase-3 overnight at 4°C. After washing, the membrane was incubated with horseradish peroxidase-conjugated secondary antibodies for 1 h at room temperature. Immunoreactive bands were visualized using a chemiluminescent substrate (ECL, Pierce Technology). The relative expression levels of cleaved PARP and cleaved caspase-3 were quantified.
Background: In western blotting, separated proteins are transferred to a membrane and probed.

The target of another series is T1, NTRK2 (Homo sapiens, UniProt Q16620).
T1 construct: purchased Thermo Fisher Scientific (SelectScreen service)
T1 sequence (Q16620 32-822): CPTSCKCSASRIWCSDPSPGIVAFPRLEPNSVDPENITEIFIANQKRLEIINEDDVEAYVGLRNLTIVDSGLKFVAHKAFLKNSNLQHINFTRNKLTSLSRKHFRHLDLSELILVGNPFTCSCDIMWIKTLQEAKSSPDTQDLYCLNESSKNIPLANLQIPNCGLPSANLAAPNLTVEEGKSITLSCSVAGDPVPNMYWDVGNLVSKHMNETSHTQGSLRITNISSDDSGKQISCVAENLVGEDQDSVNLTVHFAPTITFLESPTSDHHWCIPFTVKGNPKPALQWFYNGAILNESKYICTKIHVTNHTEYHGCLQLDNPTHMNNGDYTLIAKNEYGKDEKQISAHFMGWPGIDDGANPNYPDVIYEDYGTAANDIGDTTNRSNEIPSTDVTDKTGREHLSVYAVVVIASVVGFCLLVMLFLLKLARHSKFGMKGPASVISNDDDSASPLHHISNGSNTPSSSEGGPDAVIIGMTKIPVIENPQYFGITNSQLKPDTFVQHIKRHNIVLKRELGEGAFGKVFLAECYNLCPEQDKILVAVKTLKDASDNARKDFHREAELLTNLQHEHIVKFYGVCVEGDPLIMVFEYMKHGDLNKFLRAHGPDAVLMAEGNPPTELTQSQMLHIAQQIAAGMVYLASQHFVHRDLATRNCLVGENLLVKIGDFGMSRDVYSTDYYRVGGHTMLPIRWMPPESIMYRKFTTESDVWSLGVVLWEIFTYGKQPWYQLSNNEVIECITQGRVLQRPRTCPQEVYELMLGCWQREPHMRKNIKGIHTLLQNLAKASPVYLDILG
The series can be described thus: SelectScreen kinase selectivity assay. The class given is biochemical. Here is the method:
(§2) The kinase selectivity analysis of PKHD-5 was performed using the SelectScreen kinase analysis service provided by Thermo Fisher Scientific. The experiment initially involved the preparation of a series of inhibitor solutions at varying concentrations, which were then reacted with various kinase targets under standardized conditions to calculate the percentage inhibition for each test solution. Ultimately, the IC50 values were calculated based on the concentration-inhibition curves by fitting a four-parameter logistic curve, thereby assessing the potency and selectivity of the inhibitors. The analysis results are detailed in Supplementary Table S1.

In the next series the target is T2, PLK1 (Homo sapiens, UniProt P53350).
T2 construct: purchased Thermo Fisher Scientific (SelectScreen service)
T2 sequence (P53350 whole entry): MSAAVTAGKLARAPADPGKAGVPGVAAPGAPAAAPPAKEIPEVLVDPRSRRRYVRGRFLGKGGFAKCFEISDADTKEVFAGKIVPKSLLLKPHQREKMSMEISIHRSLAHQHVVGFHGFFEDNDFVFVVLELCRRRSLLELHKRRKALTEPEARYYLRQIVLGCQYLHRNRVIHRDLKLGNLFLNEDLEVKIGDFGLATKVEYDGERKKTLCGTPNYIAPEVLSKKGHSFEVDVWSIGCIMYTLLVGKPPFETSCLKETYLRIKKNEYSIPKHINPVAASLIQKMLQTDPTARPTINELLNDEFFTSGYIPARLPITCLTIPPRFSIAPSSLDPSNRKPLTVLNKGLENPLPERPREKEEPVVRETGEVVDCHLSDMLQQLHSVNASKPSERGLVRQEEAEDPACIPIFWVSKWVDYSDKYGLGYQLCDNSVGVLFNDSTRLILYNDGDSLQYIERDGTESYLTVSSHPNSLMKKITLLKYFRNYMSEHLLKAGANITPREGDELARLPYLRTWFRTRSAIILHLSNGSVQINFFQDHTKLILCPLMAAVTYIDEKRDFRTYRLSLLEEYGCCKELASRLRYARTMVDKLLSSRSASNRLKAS
Nature of the series: SelectScreen kinase selectivity assay. The class given is biochemical. How it is done:
as §2

The target of the next series is T3, EPHA4 (Homo sapiens, UniProt P54764).
T3 construct: purchased Thermo Fisher Scientific (SelectScreen service)
T3 sequence (P54764 20-986): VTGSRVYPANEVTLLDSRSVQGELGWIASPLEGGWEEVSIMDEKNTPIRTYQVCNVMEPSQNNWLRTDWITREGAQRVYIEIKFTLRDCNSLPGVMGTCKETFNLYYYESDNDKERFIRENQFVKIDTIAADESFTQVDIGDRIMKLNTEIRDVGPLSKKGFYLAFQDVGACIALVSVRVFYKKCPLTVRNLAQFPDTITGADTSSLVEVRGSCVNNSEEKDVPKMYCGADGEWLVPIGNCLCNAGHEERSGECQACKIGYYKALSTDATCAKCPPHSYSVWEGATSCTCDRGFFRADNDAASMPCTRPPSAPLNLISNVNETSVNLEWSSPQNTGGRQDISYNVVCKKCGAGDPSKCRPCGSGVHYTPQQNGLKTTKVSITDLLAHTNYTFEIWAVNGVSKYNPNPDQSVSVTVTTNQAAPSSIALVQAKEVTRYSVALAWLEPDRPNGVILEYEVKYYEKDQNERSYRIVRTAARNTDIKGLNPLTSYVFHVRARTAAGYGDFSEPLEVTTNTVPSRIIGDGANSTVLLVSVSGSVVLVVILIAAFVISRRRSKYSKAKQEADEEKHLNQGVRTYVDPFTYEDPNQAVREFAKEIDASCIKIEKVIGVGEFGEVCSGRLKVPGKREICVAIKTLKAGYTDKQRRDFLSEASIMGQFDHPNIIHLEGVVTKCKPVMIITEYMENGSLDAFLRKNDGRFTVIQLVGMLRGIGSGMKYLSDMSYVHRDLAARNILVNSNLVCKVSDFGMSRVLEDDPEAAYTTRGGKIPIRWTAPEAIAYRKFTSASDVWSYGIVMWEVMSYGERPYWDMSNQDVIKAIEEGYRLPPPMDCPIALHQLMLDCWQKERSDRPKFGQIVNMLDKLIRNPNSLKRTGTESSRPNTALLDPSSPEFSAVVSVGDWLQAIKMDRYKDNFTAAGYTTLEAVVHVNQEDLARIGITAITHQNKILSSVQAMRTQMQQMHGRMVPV
The series can be described thus: SelectScreen kinase selectivity assay. The class given is biochemical. Here is the method: as §2

The target in another series is T4, EPHA7 (Homo sapiens, UniProt Q15375).
T4 construct: purchased Thermo Fisher Scientific (SelectScreen service)
T4 sequence (Q15375 28-998): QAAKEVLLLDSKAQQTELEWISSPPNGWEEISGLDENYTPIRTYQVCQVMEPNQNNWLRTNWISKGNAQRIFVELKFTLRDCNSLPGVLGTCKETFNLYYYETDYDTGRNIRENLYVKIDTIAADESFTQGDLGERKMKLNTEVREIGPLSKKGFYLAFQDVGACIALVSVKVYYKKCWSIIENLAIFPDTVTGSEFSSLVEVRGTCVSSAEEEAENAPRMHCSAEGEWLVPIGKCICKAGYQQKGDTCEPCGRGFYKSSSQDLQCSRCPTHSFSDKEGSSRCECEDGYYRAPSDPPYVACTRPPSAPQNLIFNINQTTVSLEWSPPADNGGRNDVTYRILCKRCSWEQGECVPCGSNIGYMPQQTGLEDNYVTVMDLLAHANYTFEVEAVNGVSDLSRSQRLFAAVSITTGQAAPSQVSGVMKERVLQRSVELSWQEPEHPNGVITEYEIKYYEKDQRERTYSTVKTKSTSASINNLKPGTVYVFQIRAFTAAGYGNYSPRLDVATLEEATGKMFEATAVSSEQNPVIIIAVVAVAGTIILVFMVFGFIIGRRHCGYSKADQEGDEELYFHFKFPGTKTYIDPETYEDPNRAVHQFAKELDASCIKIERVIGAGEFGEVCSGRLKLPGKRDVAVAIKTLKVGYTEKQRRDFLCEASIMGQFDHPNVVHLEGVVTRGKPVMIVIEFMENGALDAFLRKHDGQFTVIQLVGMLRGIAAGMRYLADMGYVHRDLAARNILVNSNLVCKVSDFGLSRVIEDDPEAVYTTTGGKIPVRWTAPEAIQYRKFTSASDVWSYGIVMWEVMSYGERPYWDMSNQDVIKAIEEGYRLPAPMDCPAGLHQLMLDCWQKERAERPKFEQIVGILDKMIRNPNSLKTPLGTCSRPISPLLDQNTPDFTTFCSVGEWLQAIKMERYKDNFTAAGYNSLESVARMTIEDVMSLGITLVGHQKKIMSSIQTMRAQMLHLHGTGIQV
The series can be described thus: SelectScreen kinase selectivity assay. The class given is biochemical. How it is done: as §2

The next series is described as follows: In vivo pharmacokinetics. Particulars: BALB/c, mouse, plasma, mice, 5 mg/kg. Here is the method:
In the pharmacokinetic (PK) assessment of PKHD-5, BALB/c mice were utilized as the experimental model. PKHD-5 was administered either intraperitoneally or orally at a dosage of 5 mg/kg. Serial blood samples (0.25 mL) were collected at 0.25, 0.5, 1, 2, 4, 8, 16, and 24 h post-treatment. Each plasma sample (50 μL) underwent protein precipitation with a 1:1 mixture of methanol and acetonitrile (200 μL) and an internal standard. After vortexing for 5 min, the samples were centrifuged at 12,000 rpm for 5 min, yielding a supernatant (60 μL) for LC-MS/MS analysis. The data obtained were analyzed using Phoenix software to determine the PK profile of PKHD-5 in the mouse model.

The target of series [2] is T5, Human recombinant PKMYT1 enzyme (Homo sapiens, UniProt Q99640).
T5 construct: purchased Abcam
T5 sequence (Q99640 1-499): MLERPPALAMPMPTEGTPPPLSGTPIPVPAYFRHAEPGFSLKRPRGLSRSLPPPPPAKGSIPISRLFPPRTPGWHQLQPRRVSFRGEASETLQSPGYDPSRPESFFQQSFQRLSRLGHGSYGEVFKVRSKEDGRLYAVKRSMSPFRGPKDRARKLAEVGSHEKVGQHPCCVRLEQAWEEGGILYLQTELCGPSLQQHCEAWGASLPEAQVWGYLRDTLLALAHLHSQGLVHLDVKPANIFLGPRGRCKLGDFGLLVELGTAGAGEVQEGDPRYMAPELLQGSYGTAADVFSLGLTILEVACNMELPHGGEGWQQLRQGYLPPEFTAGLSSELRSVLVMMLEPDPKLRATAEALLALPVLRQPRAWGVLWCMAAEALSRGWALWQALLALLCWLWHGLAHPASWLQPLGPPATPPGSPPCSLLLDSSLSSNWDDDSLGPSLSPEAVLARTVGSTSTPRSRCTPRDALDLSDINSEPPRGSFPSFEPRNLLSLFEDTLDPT
Nature of the series: ADP-GLO enzyme inhibition assay. The class given is biochemical. How it is done: The ADP-GLO™ kinase assay kit, purchased from Promega Corporation (Madison, WI, United States), included the ADP-GLO reagent, the kinase assay reagent, and ultra-pure ATP and ADP. PKMYT1 enzyme was dissolved in 5 μL of freshly prepared enzyme assay buffer containing 70 mM Hepes, 3 mM MgCl2, 3 mM MnCl2, 50 μg/mL PEG20000, 3 μM sodium orthovanadate, 1.2 mM dithiothreitol, and then injected into 384-well plates. […] The enzymatic reaction was initiated by adding 5 μL of ATP, followed by a 60-min incubation at 30°C. Subsequently, 15 μL of ADP-GLO reagent was added, and the incubation was continued for an additional 40 min at room temperature. Then, 30 μL of kinase detection reagent was introduced, and the samples were incubated for a final 30 min. Luminescence measurements were taken using an Envision plate reader (PerkinElmer). The IC50 value of each tested compound was calculated by GraphPad Prism software.
On the technique in general: ADP-Glo first removes unused ATP, then detects ADP through luciferase.

On to `Cc1ccc(O)c(C)c1-n1c(N)c(C(N)=O)c2cc(CCCCCC(=O)NO)c(C)nc21` [PKHD-5], for which the IC50 in the series on HepG2 was 0.19 ± 0.03 µM; with Hep3B, 0.38 ± 0.05 µM; in the series on HepG2/MDR, 0.92 ± 0.05 µM; in the series on SNU449, 0.59 ± 0.06 µM; in the series with Huh7, 0.47 ± 0.04 µM; in series [1], greater than 100000 nM. Also, the IC50 at NTRK2 is greater than 50 µM; at PLK1, greater than 50 µM; on EPHA4, greater than 50 µM; on EPHA7 it was greater than 50 µM; in series [2] (ADP-GLO method), 3.15 ± 0.21 nM. Besides, in the series with HepG2 cells, the “levels of cleaved PARP” value is recorded as “increased levels”. For the same compound, the “levels of cleaved caspase-3” value with HepG2 cells is on record as “increased levels”. The exposure (AUC) (as a rule, the area under the concentration-time curve, a measure of exposure) was 15 µM·h in “In vivo pharmacokinetics” (IP) and 12.2 µM·h in the series “In vivo pharmacokinetics” (PO). For the same compound, the Cmax (commonly the highest concentration seen after dosing) is 3.26 µM in the series “In vivo pharmacokinetics” (IP) and 2.92 µM in the series “In vivo pharmacokinetics” (PO). Moreover, the bioavailability (commonly the share of a dose that reaches the circulation, judged against a reference dose that is usually intravenous) is 82% in the series “In vivo pharmacokinetics” (IP) and 66% in the series “In vivo pharmacokinetics” (PO). In addition, the values for the half-life in the series “In vivo pharmacokinetics” (IP) and in “In vivo pharmacokinetics” (PO) were 4.75 h and 3.93 h, respectively. In addition, the “fold inhibition of PKMYT1 compared with the control compound 39” value in series [2] (ratio of IC50 values versus compound 39) turned out to be 4.91 fold.
